81 compounds from publication PMC12040169 (PLOS Biology, 2025) can be followed below.

As a reminder, the viability is a read-out of living cells in per cent, often relative to untreated cells.

The nature of the series: in vitro. Particulars: human, hela cells, % viability.
For `CCc1c(C)nc2c(C(=O)NCCSC)cnn2c1C` [CBK162147], the viability at 28.5 h, 10 µM was determined as 97.2%.

In the case of `CC(=O)NCc1ccc(-c2ccc(C(=O)NC3(c4ccccc4)CCCC3)c(C)n2)cc1` [CBK285891], the viability at 28.5 h, 10 µM is 96%.

For the compound `CN(C)Cc1ccccc1-n1cc(-c2cccnc2)nn1` [CBK113064], the viability at 28.5 h, 10 µM was 92.5%.

`N#Cc1cccc(C(=O)N2CCCN(Cc3ccc(Cl)cc3)CC2)c1` [CBK305323]: the viability at 28.5 h, 10 µM worked out at 95.9%.

Turning to `COC(=O)c1ccc(NS(=O)(=O)c2cc(Cl)sc2Cl)cc1` [CBK028684], the viability at 28.5 h, 10 µM was 107%.

For the compound `COc1ccc(N)cc1OCc1cn2ccccc2n1` [CBK295609], the viability at 28.5 h, 10 µM turned out to be 57.2%.

Regarding `CNC(=O)C1(Cc2ccccc2-c2ccccc2)CCN(C(=O)Cc2ccccc2)CC1` [CBK285695], the viability at 28.5 h, 10 µM was found to be 93.3%.

As to `O=C(Nc1ccncc1)c1ccc2nc[nH]c2c1` [CBK269034], the viability at 28.5 h, 10 µM amounted to 93.2%.

`COc1ccc(N2C(=O)CSC23C(=O)N(Cc2ccc(Cl)cc2)c2ccccc23)cc1` (stereo not drawn) [CBK092396]: the viability at 28.5 h, 10 µM came out at 91.6%.

For `NCCNCCCCOc1ccc(Cl)c(Cl)c1` [CBK265059], the viability at 28.5 h, 10 µM was 109%.

Regarding `CN1CCN(C(=O)c2n[nH]c3c2CCCC3)C(Cc2ccc(-c3cccs3)cc2)C1=O` (stereo not drawn) [CBK285812], the viability at 28.5 h, 10 µM came to 101%.

In the case of `COc1ccc(-n2c(SC(CN3CCCCC3)CN3CCCC3=O)nc3ccccc3c2=O)cc1` (stereo not drawn) [CBK264891C], the viability at 28.5 h, 10 µM came out at 87.8%.

In the case of `Cc1cccc(CN(CCCN)C(=O)Nc2ccc(C(C)(C)C)cc2)n1` [CBK033365C], the viability at 28.5 h, 10 µM came to 98.3%.

As for `O=C(Cn1c[n+]([N-][N+](=O)[O-])cn1)Nc1ncc(Br)cc1Br` [CBK262342], the viability at 28.5 h, 10 µM is 90.9%.

With `CCN1CCN(C(=O)c2c(-c3ccccc3)noc2C)CC1` [CBK200251], the viability at 28.5 h, 10 µM was found to be 96.5%.

Take `Cc1ccc(S(=O)(=O)NC(CC(=O)O)c2ccccc2)cc1` (stereo not drawn) [CBK261307]: the viability at 28.5 h, 10 µM was 105%.

Regarding `O=C(O)c1nccnc1C(=O)N1CCN(c2ccc(Cl)cc2)CC1` [CBK286826], the viability at 28.5 h, 10 µM turned out to be 89.4%.

Consider `CCCc1nn(CC(=O)NC(C)C)c(=O)c2cc3ccsc3n12` [CBK284147], for which the viability at 28.5 h, 10 µM was found to be 87.5%.

Consider `CCc1cc2c(NC(C(=O)O)C(C)C)ncnc2s1` (stereo not drawn) [CBK265349], for which the viability at 28.5 h, 10 µM amounted to 97.7%.

As to `Cn1nc(C2CCN(C(=O)CCc3ccccc3)CC2)c2cccnc21` [CBK285050], the viability at 28.5 h, 10 µM worked out at 103%.

Turning to `CSc1nc(N)cc(N2CCN(C(=O)OC(C)(C)C)CC2)n1` [CBK003458], the viability at 28.5 h, 10 µM was 111%.

With `Cc1nn(C)c(S(=O)(=O)N2CCOCC2c2cccc(F)c2)c1C(F)F` (stereo not drawn) [CBK304729], the viability at 28.5 h, 10 µM was determined as 86.3%.

As for `O=S(=O)(NCCc1ccncc1)c1ccc(Cl)c(Cl)c1` [CBK044438], the viability at 28.5 h, 10 µM came to 97.9%.

Turning to `COc1cccc2c3c([nH]c12)C1(CCN(CCc2scnc2C)CC1)NCC3` [CBK040058], the viability at 28.5 h, 10 µM worked out at 89%.

For the compound `CCC1(c2ccccc2)OCC(C2CCCCN2)O1` (stereo not drawn) [CBK023284C], the viability at 28.5 h, 10 µM worked out at 85.7%.

Regarding `O=C(NCCc1c[nH]c2ccc(Cl)cc12)c1ccoc1` [CBK159782], the viability at 28.5 h, 10 µM amounted to 97.9%.

For `CSc1nnc(NS(=O)(=O)c2ccccc2C)s1` [CBK144918], the viability at 28.5 h, 10 µM turned out to be 97.4%.

In the case of `Cn1ccnc1CN1CCCN(C(=O)c2cccc(C#N)c2)CC1` [CBK303998], the viability at 28.5 h, 10 µM was 85.2%.

With `CN1C(=O)C2(CC(=O)N(CCC3CCCCC3)C2=O)c2cc(Cl)ccc21` (stereo not drawn) [CBK075231], the viability at 28.5 h, 10 µM came to 92%.

On to `COCCn1c(SCc2cn3c(C)cc(C)nc3n2)nc(C)c1C` [CBK306489], for which the viability at 28.5 h, 10 µM was found to be 89.3%.

On to `CN1C(=O)CC2(C1=O)C(=O)N(CCCCOc1ccccc1)c1ccc(F)cc12` (stereo not drawn) [CBK075408], for which the viability at 28.5 h, 10 µM stood at 96%.

With `CC1CCN(S(=O)(=O)c2ccc(NC(=O)c3cccc(NC(=O)C(C)C)c3)cc2)CC1` [CBK265653], the viability at 28.5 h, 10 µM was 88%.

Turning to `O=C(O)COc1ccccc1/C=N/NC(=O)Cc1ccc(Br)c2ccccc12` [CBK263116], the viability at 28.5 h, 10 µM was 85.6%.

As for `N#C/C(=C\c1ccc(-c2ccc3c(c2)C(=O)NC3=O)o1)c1nc2ccccc2[nH]1` [CBK262965], the viability at 28.5 h, 10 µM turned out to be 94.4%.

On to `CC(C)C(=O)N1CC2(CCN(Cc3nc4ccccc4s3)CC2)c2ccccc21` [CBK136980], for which the viability at 28.5 h, 10 µM worked out at 96%.

For the compound `CS(=O)(=O)N1CC2(CCN(C(=O)[C@@H](N)COCc3ccccc3)CC2)c2ccccc21` [CBK022597C], the viability at 28.5 h, 10 µM is 104%.

`COC(=O)c1c(NC(=O)CSc2nnc3ccccn23)sc(C)c1C` [CBK265943]: the viability at 28.5 h, 10 µM was found to be 95.7%.

With `C/C=N\n1c(CO)nnc1CO` [CBK034325], the viability at 28.5 h, 10 µM amounted to 86.5%.

Consider `COC(=O)c1scc(NS(=O)(=O)c2cccc(C(F)(F)F)c2)c1C(=O)OC` [CBK026680], for which the viability at 28.5 h, 10 µM was 94.9%.

For `CC(=O)N(C)c1ccc(NC(=O)c2ccccc2C(=O)O)cc1` [CBK270693], the viability at 28.5 h, 10 µM was 97.9%.

With `Cn1c(C(=O)Nc2ccc(Cn3cncn3)cc2)cc2cc(F)ccc21` [CBK281584], the viability at 28.5 h, 10 µM is 104%.

In the case of `COc1ccc(CNC(=O)N(Cc2cccnc2)Cc2ccc3c(c2)OCO3)cc1OC` [CBK159456], the viability at 28.5 h, 10 µM was determined as 87.3%.

For `CC(=O)Nc1ccc(CNC(=O)CN(C)Cc2nc(C3CC3)no2)cc1` [CBK306695], the viability at 28.5 h, 10 µM was 114%.

`CN1CCC[C@H]1COc1ncccc1OCCO` [CBK042185]: the viability at 28.5 h, 10 µM came to 92.6%.

As to `O=C(Nc1ccccc1-n1cnnn1)c1ccccc1Cl` [CBK287994], the viability at 28.5 h, 10 µM was 95%.

Consider `CC(=O)Nc1ccccc1-c1nc2ccccc2nc1OCC(=O)c1ccc(Cl)cc1` [CBK266269], for which the viability at 28.5 h, 10 µM worked out at 93.6%.

In the case of `CCCCc1nc(CS(=O)(=O)C(C)c2nc(C(C)C)no2)cs1` (stereo not drawn) [CBK305707], the viability at 28.5 h, 10 µM amounted to 88.3%.

Turning to `CN(C)CCN(Cc1ccccn1)c1ncccn1` [CBK020142], the viability at 28.5 h, 10 µM was found to be 116%.

As for `COc1ccc(Cc2c(C)nc3c(C(=O)NCCSC)cnn3c2C)cc1` [CBK162191], the viability at 28.5 h, 10 µM amounted to 111%.

Turning to `O=S(=O)(c1ccc(Br)cc1)N1CCCCC1CO` (stereo not drawn) [CBK051127], the viability at 28.5 h, 10 µM worked out at 116%.

Turning to `O=C(Nc1ccccc1)[C@H]1CN2CCC1C[C@@H]2Cn1cc(C2(O)CCCC2)nn1` (stereo partly drawn) [CBK289091], the viability at 28.5 h, 10 µM came out at 103%.

Take `Cn1c(=O)oc2ccc(C(=O)N3CCn4nc(CO)cc4C3)cc21` [CBK306821]: the viability at 28.5 h, 10 µM came out at 85.6%.

`Cc1cccc(S(=O)(=O)Nc2cc(OCCN3CCOCC3)c3occc3c2)c1` [CBK067420C]: the viability at 28.5 h, 10 µM amounted to 90.4%.

In the case of `CCc1nc2ccc(C(=O)N3CCN(c4ccccc4)CC3)cn2c1N(C)C(=O)Nc1ccccc1OC` [CBK145886], the viability at 28.5 h, 10 µM came out at 96.2%.

Turning to `Cn1cc(-c2ncc(OCCOc3ccccc3)nc2N)cn1` [CBK145171], the viability at 28.5 h, 10 µM worked out at 108%.

For `CCC(C)c1ccccc1NC(=O)c1cc(=O)[nH]c2ccccc12` (stereo not drawn) [CBK297516], the viability at 28.5 h, 10 µM worked out at 89.6%.

With `Fc1ccc(OCc2ccc(-c3nnn[nH]3)cc2)cc1` [CBK267859], the viability at 28.5 h, 10 µM came to 106%.

For `CSCCOc1cc(NC(C)C)ncn1` [CBK115889], the viability at 28.5 h, 10 µM turned out to be 86.9%.

`O=C(COc1cccc2ccccc12)NNC(=O)C1CCCO1` (stereo not drawn) [CBK263007]: the viability at 28.5 h, 10 µM turned out to be 89.7%.

With `O=C(O)c1ccc(NS(=O)(=O)c2cccc([N+](=O)[O-])c2)cc1O` [CBK200022], the viability at 28.5 h, 10 µM stood at 84.8%.

In the case of `CCOc1ccc(-c2cncc(Nc3cccc(C(F)(F)F)c3)n2)cc1` [CBK065798], the viability at 28.5 h, 10 µM amounted to 50%.

With `COc1ccc2c(-n3cncn3)ccnc2c1` [CBK025957], the viability at 28.5 h, 10 µM was determined as 90.2%.

As for `CN(Cc1nc2c(s1)CCCC2)C(=O)c1ccc2[nH]cnc2c1` [CBK304138], the viability at 28.5 h, 10 µM was 88.4%.

Regarding `CN(C)C(=O)C1(Cc2ccc(-c3cccs3)cc2)CCN(C(=O)c2ccccc2)CC1` [CBK286270], the viability at 28.5 h, 10 µM is 85.5%.

As for `COc1ccc(-n2ncc(-c3cccc(C(F)(F)F)c3)n2)cn1` [CBK112678], the viability at 28.5 h, 10 µM came out at 95.8%.

Regarding `NCCc1nc(-c2ccccc2)c2cnccn12` [CBK035705], the viability at 28.5 h, 10 µM was 101%.

In the case of `CC(C)(C)c1ccc(-c2ccc3ccc(=O)[nH]c3n2)cc1` [CBK073716], the viability at 28.5 h, 10 µM was 96.5%.

On to `Oc1nc2cccnc2cc1-c1ccc2c(c1)OCCCO2` [CBK081299], for which the viability at 28.5 h, 10 µM was 96%.

In the case of `Cc1cc2ncc3c(n2n1)CC1CCC3N1Cc1ccccc1` (stereo not drawn) [CBK282266], the viability at 28.5 h, 10 µM amounted to 104%.

As for `Cc1cc(CNS(=O)(=O)c2ccc(-c3ccon3)s2)no1` [CBK062276], the viability at 28.5 h, 10 µM came out at 103%.

Take `O=C1NN=C(c2ccccc2)CC1c1c[nH]c2ccccc12` (stereo not drawn) [CBK288235]: the viability at 28.5 h, 10 µM came out at 104%.

In the case of `O=C(C1CC1)N1CCCC(c2nc(-c3cccs3)no2)C1` (stereo not drawn) [CBK281944], the viability at 28.5 h, 10 µM stood at 97.1%.

Regarding `CC(=O)N1CC[C@H](c2nc3ccc(C#N)cc3[nH]2)C1` [CBK289378], the viability at 28.5 h, 10 µM was found to be 108%.

As for `COCCn1c(CN2CCCC(C)C2)nc2c1c(=O)n(C)c(=O)n2C` (stereo not drawn) [CBK306063], the viability at 28.5 h, 10 µM amounted to 108%.

Consider `O=C(Nc1ccccc1C(F)(F)F)N1CCN(c2ccccc2Cl)CC1` [CBK045081], for which the viability at 28.5 h, 10 µM was 79.7%.

Regarding `COc1cc(Nc2cncc(-c3ccc(O)cc3)n2)c(Cl)cc1C(=O)NCCCN(C)C` [CBK122651], the viability at 28.5 h, 10 µM was determined as 81.1%.

With `O=C(CC(C(=O)O)n1cccn1)c1ccc(Br)cc1` (stereo not drawn) [CBK269541], the viability at 28.5 h, 10 µM came to 90.8%.

On to `O=C(/C=C/c1ccco1)Nc1cc2ccccc2cc1NC(=O)/C=C/c1ccco1` [CBK261474], for which the viability at 28.5 h, 10 µM was determined as 99.5%.

`CC(C(=O)NC1(C#N)CCCCC1)N1CCOC(CN(C)C)C1` (stereo not drawn) [CBK305155]: the viability at 28.5 h, 10 µM turned out to be 88.6%.

`Cc1csc(C(Cc2cccs2)NC(=O)CN(C)C)n1` (stereo not drawn) [CBK285124]: the viability at 28.5 h, 10 µM was determined as 97.9%.

With `O=C(CN(c1ccccc1F)S(=O)(=O)c1ccccc1)Nc1ccccc1C(=O)O` [CBK263999], the viability at 28.5 h, 10 µM worked out at 97.1%.
